Laboratory results reported in ChEMBL document CHEMBL1201862, “PubChem BioAssay data set” (2004).
Activity calls are given as the source filed them.

Key:
[1] = biological target: G-protein coupled receptor 35 (Homo sapiens, UniProt Q9HC97); assay: GPR35 antagonists blocking zaprinast-driven arrestin recruitment, primary screen, imaging, U2OS, beta-arrestin-GFP, zaprinast agonist (AID 2058); type: functional;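 further: antagonist potency meaning inhibition of agonist-induced arrestin redistribution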
Chain of G-protein coupled receptor 35 (Q9HC97 whole entry): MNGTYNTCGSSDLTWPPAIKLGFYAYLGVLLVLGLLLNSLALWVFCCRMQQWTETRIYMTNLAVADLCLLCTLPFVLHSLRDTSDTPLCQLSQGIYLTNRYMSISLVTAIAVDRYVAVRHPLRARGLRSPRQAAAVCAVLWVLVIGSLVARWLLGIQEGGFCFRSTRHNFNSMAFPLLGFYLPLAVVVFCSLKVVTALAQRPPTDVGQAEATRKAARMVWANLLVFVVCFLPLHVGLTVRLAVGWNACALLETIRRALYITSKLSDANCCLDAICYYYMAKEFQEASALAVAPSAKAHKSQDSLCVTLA

[2] = biological target: T1, Tyrosine-protein phosphatase non-receptor type 7 (Homo sapiens, UniProt P35236); assay: SAR analysis of chemical inhibitors of HePTP using a Fluorescent assay - Set 2. [Related pubchem assays (depositor defined):AID1059, AID1077, AID1661, AID2085, AID521]; type: functional
T1 sequence (P35236 whole entry): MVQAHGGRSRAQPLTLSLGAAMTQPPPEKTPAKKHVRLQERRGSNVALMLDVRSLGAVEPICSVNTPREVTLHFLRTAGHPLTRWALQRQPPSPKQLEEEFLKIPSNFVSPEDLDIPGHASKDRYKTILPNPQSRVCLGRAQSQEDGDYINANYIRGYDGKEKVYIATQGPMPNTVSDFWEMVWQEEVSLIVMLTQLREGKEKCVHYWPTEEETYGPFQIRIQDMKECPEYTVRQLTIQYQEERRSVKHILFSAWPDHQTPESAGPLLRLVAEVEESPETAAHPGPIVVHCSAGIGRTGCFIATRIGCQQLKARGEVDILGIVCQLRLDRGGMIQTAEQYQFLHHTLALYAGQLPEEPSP

[3] = biological target: Dual specificity protein phosphatase 3 (Homo sapiens, UniProt P51452); assay: SAR VHR1 Fluorescent Assay for In Vitro dose response studies Set 2. [Related pubchem assays (depositor defined):AID1654, AID1661, AID1878]; type: functional
Chain of Dual specificity protein phosphatase 3 (P51452 whole entry): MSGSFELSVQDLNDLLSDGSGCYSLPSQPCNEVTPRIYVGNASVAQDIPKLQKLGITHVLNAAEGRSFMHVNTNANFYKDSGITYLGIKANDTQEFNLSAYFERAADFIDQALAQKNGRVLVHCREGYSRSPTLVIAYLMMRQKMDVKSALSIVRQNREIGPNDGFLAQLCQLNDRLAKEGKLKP

X-box-binding protein 1 = biological target: T2, X-box-binding protein 1 (Homo sapiens, UniProt P17861); type: functional, Cricetulus griseus;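 further: confirmatory dose-response counter-screen serving a CHOP assay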
T2 sequence (P17861 whole entry): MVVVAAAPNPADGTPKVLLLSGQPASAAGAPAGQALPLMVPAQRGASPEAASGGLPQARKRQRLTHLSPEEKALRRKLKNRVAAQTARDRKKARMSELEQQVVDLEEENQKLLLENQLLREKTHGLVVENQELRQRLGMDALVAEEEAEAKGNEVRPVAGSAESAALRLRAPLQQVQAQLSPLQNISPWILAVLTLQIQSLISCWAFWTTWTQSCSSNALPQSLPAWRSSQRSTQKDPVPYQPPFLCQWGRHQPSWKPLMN

[4] = biological target: DNA (cytosine-5)-methyltransferase 1 (Homo sapiens, UniProt P26358); assay: DNMT1 methyltransferase inhibitors, confirmation, biochemical, fluorescent molecular beacon (AID 602386); type: functional
Chain of DNA (cytosine-5)-methyltransferase 1 (P26358 whole entry): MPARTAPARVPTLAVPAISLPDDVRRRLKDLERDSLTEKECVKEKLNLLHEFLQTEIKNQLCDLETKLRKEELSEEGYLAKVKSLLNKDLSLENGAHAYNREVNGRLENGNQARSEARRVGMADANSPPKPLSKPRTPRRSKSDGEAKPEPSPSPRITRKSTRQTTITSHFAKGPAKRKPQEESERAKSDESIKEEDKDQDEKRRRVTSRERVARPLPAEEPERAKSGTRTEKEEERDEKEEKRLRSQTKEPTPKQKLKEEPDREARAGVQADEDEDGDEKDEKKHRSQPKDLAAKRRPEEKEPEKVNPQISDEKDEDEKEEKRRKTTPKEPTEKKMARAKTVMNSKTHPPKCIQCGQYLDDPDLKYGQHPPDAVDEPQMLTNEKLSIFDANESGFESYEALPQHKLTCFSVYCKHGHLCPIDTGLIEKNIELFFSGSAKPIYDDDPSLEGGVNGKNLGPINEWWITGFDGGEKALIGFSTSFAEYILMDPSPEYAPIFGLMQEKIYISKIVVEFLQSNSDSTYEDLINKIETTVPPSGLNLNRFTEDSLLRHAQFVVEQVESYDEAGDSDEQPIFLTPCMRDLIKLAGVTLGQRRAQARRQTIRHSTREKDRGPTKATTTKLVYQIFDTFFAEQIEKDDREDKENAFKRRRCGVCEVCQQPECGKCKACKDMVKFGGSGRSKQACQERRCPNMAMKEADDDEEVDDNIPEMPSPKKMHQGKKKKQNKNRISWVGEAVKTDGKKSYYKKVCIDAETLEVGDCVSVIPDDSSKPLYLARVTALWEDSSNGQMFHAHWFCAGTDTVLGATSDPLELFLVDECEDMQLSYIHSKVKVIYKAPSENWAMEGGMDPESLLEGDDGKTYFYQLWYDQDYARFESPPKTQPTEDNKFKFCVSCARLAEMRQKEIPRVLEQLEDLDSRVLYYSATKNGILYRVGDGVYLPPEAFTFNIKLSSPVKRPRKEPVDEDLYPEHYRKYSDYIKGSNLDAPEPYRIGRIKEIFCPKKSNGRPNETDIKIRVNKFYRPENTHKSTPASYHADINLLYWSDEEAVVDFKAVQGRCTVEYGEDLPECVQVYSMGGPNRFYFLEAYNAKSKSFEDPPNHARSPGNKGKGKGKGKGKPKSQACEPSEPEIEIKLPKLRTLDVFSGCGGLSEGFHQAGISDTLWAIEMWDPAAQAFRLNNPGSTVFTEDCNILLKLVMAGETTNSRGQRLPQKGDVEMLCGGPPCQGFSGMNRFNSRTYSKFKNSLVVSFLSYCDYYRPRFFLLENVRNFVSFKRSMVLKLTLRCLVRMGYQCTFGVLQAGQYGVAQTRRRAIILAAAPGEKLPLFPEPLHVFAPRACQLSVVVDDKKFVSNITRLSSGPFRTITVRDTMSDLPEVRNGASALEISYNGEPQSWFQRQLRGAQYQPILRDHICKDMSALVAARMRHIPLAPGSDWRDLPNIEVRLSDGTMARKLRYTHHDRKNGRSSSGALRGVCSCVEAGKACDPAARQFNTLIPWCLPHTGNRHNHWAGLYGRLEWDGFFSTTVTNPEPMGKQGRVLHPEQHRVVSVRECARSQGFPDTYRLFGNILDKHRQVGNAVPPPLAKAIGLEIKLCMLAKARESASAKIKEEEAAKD

BJ = assay: cytotoxicity toward BJ-TERT fibroblasts, dose response, cell-based, RAS-independent, luminescence (AID 1933); type: functional; details: Homo sapiens
cells = type: functional, cell-based
[5] = cytotoxicity toward DRD oncogenic fibroblasts, dose response, cell-based, non-viral oncogenic, luminescence (AID 1934); type: functional; details: Homo sapiens
Cytochrome P450 2D6 = Cytochrome P450 2D6 (Homo sapiens, UniProt P10635);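 further: CYP2D6 member of a cytochrome P450 panel assay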
Chain of Cytochrome P450 2D6 (P10635 whole entry): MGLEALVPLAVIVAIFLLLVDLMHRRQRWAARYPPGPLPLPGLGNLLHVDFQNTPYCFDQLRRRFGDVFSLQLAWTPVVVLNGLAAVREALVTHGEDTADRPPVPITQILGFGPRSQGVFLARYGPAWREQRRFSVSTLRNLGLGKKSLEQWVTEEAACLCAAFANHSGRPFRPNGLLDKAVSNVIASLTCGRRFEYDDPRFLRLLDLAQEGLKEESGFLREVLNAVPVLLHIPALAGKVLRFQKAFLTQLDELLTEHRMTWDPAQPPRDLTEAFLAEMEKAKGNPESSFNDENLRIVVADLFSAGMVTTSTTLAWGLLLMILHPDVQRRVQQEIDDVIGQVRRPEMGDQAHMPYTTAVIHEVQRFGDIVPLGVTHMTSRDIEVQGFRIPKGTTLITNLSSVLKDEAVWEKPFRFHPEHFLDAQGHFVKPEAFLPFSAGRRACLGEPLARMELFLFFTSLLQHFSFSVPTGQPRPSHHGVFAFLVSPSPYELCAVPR

Cytochrome P450 1A2 = biological target: T3, Cytochrome P450 1A2 (Homo sapiens, UniProt P05177);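 further: PubChem cytochrome P450 panel assay, CYP1A2 panel member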
T3 sequence (P05177 whole entry): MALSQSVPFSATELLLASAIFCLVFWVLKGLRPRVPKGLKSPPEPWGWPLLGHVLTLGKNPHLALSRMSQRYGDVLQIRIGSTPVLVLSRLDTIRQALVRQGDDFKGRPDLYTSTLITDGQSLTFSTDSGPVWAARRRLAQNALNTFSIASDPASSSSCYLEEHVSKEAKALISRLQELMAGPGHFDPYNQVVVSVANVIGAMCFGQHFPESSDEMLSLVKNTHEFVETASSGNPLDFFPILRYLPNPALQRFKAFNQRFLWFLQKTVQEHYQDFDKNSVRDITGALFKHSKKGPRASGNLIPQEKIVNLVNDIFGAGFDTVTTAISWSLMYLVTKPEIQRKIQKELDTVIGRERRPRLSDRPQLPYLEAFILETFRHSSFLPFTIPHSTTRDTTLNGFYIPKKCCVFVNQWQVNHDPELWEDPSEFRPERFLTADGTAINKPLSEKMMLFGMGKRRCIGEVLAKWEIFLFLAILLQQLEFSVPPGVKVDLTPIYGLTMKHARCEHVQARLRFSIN

[6] = ARNT/TACC3 interaction disruptors, potency, confirmation, biochemical, AlphaScreen, cherry-picked samples (AID 651703); type: functional, Homo sapiens;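 further: His-tagged ARNT PAS-B domain paired with GST-TACC3 E629A dimer coactivator fragment; potency of inhibitors that break up the complex and lower AlphaScreen signal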
[7] = cytotoxicity in MIN6 insulinoma cells, dose response, cytotoxicity control, cell-based, mouse insulinoma (AID 2122); type: functional;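 further: confirmatory high-throughput counterscreen run to flag cytotoxic compounds; mouse MIN-6 beta cells carrying an insulin promoter eGFP reporter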
[8] = inhibitors of SNCA 5'UTR-driven reporter translation, confirmation, H4 neuroglioma cells, luminescence (AID 1988); type: functional, cell-based
[9] = Luminescence-based dose response cell-based high throughput screening assay for cytotoxic compounds using the IEC-6 intestinal epithelial cell line. [Related pubchem assays: 1858 (Summary AID.), 1825 (Counterscreen.), 1907 (Confirmation screen.)]; type: functional
[10] = biological target: T4, C-C chemokine receptor type 6 (Homo sapiens, UniProt P51684); assay: CCR6 receptor antagonists, dose response, cell-based, luminescent beta-arrestin readout (AID 504728); type: functional
T4 sequence (P51684 whole entry): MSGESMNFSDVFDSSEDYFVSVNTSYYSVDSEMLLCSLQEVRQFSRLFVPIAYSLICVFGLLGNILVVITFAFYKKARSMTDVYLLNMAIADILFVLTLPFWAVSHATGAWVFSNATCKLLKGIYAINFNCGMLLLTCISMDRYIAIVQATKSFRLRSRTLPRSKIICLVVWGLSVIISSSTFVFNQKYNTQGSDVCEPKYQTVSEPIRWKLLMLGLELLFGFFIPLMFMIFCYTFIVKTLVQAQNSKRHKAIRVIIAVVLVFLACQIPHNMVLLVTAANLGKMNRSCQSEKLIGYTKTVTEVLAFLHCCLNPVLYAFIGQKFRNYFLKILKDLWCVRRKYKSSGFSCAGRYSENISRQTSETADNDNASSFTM

[11] = biological target: Dual specificity tyrosine-phosphorylation-regulated kinase 1A (Rattus norvegicus, UniProt Q63470); type: biochemical, Homo sapiens
[12] = biological target: 1-phosphatidylinositol 4,5-bisphosphate phosphodiesterase beta-3 (Homo sapiens, UniProt Q01970); assay: Fluorescence-based biochemical high throughput dose response assay to identify inhibitors of phospholipase C isozymes (PLC-B3).
Chain of 1-phosphatidylinositol 4,5-bisphosphate phosphodiesterase beta-3 (Q01970 whole entry): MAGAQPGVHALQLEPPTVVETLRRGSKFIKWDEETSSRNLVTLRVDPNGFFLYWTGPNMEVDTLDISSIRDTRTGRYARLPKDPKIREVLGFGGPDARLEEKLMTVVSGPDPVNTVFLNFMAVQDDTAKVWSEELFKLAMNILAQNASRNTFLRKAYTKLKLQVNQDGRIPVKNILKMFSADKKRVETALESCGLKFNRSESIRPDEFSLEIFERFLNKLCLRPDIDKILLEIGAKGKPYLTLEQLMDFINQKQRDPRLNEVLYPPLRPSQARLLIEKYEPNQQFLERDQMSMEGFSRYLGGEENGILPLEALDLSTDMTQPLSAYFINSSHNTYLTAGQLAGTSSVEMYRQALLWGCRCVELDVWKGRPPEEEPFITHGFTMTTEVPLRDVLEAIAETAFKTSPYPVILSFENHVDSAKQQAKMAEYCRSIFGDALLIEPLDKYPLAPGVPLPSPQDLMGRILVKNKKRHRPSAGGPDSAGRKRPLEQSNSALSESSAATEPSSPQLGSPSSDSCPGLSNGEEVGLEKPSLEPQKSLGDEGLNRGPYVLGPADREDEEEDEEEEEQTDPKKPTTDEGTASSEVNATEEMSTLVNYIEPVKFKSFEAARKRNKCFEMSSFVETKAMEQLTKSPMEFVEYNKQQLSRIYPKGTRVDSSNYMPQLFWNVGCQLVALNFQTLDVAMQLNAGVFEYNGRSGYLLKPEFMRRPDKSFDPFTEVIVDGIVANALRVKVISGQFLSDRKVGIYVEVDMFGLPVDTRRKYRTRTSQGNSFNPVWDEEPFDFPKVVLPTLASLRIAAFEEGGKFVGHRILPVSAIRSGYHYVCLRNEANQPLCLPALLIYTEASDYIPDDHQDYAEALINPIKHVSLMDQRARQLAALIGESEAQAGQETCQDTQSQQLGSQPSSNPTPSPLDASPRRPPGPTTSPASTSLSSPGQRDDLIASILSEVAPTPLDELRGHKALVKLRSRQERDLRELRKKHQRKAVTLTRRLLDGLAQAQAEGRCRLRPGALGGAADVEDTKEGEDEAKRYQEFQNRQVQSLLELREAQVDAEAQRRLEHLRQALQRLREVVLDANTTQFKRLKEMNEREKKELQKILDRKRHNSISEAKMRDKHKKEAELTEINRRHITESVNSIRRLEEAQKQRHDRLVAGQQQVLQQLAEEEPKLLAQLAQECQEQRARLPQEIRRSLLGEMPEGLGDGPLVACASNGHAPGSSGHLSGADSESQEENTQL

[13] = biological target: T5, Sentrin-specific protease 8 (Homo sapiens, UniProt Q96LD8); type: functional
T5 sequence (Q96LD8 whole entry): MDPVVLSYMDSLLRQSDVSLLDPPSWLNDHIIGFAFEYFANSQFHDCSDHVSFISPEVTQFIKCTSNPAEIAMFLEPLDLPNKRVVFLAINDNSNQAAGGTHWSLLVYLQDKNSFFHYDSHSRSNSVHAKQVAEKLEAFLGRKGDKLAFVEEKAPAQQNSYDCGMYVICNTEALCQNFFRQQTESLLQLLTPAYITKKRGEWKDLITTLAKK

CCc1nnc(NS(=O)(=O)c2ccc(NC(=S)NC(=O)/C=C/c3ccc(C(C)C)cc3)cc2)s1
IC50 [1]: 1.59 µM (active)
IC50 [2]: 5.99 µM (active)
IC50 [3]: 15 µM (active)
Absolute IC50 (XBP1) (X-box-binding protein 1): 10 µM
IC50 [4]: 6.16 µM (active)

O=C(/C=C/c1ccco1)Nc1ccc(Oc2ccccc2)cc1
EC50 (BJ): > 150 µM (not active)
EC50 (cells): 6.08 µM (active)
EC50 [5]: 18.1 µM (active)
AC50 (Cytochrome P450 2D6): 4.47 µM (inconclusive)
AC50 (Cytochrome P450 1A2): 20 µM (inconclusive)

COc1ccc(S(=O)(=O)Nc2cc(SCC(=O)O)c(O)c3ccccc23)cc1
AC50 [6]: 126 µM (active)

O=C1C(Nc2ccc(O)cc2)=C/C(=N/S(=O)(=O)c2cccs2)c2ccccc21
IC50 [7]: 0.702 µM (active)
EC50 [8]: 5.59 µM (active)
IC50 [9]: 0.428 µM (active)
IC50 [10]: > 66.6 µM (inactive)
AC50 [11]: 0.883 µM (active)
IC50 [12]: > 40.8 µM (inactive)

COC(=O)C(O)(c1c(C)[nH]n(-c2ccccc2)c1=O)C(F)(F)F (stereo not drawn)
IC50 [13]: 2.43 µM (active)
